US20090298834A1, “4-(AMINOMETHYL)CYCLOHEXANAMINE DERIVATIVES AS CALCIUM CHANNEL BLOCKERS” (priority 2008, published 2009)
pIC50: −log10 of the molar value.

Assays:
[1] = tested on: spinal nerve ligation model of neuropathic pain; details: rats; Dogrul et al., Pain (2003); cited from earlier work
[2] = tested on: T-type over L-type channels; details: cited from earlier work
[3] = molecular target: T1, human α1H T-type channels (Homo sapiens, UniProt O95180); test: T-type calcium channel block, whole cell patch clamp (α1H); assay type: cell-based; details: HEK cells stably expressing human α1H; mainly non-inactivated protocol; values above 10 μM represented as 10 μM
T1 construct: expressed in transfected cells; host or cells: HEK 293
Outline: (§1)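 Resting block was measured mainly with the non-inactivated protocol: holding potential −110 mV, 1 s step to −100 mV, then a 50 ms test pulse at −40 mV. Recordings used stably transfected human α1G or α1H HEK293 lines, with compounds perfused in external solution containing 0.1-0.01% DMSO. IC50 values (μM) above 10 μM are reported as 10 μM.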

[4] = molecular target: T2, human α1G T-type channels (Homo sapiens, UniProt O43497); test: T-type calcium channel block, whole cell patch clamp (α1G); assay type: cell-based; details: HEK cells stably expressing human α1G; mainly non-inactivated protocol; values above 10 μM represented as 10 μM, values below 0.30 μM represented as 0.30 μM
T2 construct: expressed in transfected cells; host or cells: HEK 293
Outline: as §1

T1 sequence (O95180 whole entry): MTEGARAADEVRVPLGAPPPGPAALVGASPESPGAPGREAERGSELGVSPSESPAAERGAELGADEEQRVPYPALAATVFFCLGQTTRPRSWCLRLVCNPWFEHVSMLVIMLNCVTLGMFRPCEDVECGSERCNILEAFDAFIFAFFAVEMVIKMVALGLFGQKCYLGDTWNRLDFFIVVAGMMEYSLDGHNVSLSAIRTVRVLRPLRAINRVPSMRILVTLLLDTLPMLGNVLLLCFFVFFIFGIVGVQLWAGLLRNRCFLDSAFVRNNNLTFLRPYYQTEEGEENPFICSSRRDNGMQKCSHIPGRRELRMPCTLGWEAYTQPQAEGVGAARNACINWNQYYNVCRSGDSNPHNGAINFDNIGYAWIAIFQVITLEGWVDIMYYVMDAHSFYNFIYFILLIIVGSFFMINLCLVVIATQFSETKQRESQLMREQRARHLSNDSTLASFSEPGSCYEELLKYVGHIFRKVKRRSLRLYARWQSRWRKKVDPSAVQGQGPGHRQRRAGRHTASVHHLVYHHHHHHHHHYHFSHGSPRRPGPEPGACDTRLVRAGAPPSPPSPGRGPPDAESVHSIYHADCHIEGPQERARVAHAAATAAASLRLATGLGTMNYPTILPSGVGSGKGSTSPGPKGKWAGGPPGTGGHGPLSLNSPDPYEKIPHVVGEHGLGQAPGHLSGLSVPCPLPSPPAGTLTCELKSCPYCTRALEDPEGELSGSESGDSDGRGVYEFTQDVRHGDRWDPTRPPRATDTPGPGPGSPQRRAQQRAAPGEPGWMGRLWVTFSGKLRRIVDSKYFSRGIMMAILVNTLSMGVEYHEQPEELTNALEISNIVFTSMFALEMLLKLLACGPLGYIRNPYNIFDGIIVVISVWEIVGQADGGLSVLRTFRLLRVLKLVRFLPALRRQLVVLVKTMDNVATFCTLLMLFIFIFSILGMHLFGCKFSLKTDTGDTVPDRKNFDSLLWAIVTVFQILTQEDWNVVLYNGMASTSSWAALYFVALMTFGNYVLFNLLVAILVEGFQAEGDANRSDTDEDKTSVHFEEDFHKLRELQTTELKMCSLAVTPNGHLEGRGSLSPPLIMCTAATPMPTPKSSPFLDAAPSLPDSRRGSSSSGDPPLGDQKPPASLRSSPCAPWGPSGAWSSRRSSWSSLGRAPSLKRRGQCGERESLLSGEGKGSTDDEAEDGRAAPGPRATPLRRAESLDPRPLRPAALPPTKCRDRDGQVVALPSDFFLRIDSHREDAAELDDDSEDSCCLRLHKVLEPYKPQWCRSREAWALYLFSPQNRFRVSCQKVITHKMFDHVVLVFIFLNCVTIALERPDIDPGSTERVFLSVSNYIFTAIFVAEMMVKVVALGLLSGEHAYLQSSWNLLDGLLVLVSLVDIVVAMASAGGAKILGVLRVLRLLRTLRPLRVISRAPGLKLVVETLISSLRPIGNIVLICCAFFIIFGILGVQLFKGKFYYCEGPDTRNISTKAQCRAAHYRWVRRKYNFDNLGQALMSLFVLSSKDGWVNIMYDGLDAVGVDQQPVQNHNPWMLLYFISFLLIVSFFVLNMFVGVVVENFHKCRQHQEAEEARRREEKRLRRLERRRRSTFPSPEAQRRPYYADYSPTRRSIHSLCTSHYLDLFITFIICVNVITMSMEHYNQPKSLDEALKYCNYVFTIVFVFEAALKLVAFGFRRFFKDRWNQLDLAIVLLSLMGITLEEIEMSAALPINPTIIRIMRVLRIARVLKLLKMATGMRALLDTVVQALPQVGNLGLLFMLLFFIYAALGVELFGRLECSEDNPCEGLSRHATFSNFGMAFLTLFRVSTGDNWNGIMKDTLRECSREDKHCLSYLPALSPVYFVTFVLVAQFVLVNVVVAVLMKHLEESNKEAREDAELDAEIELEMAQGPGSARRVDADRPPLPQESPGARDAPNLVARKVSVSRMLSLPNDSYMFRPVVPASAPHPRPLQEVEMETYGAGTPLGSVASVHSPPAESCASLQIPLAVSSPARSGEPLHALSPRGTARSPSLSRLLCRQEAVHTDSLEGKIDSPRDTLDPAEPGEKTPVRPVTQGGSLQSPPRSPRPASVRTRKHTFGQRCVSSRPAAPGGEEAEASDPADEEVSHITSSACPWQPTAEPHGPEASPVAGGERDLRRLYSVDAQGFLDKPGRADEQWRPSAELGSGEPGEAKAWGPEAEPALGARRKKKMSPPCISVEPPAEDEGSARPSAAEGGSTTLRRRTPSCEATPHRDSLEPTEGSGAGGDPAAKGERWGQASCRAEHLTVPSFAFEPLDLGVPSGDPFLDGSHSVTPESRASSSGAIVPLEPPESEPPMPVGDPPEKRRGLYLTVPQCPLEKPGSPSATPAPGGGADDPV
T2 sequence (O43497 whole entry): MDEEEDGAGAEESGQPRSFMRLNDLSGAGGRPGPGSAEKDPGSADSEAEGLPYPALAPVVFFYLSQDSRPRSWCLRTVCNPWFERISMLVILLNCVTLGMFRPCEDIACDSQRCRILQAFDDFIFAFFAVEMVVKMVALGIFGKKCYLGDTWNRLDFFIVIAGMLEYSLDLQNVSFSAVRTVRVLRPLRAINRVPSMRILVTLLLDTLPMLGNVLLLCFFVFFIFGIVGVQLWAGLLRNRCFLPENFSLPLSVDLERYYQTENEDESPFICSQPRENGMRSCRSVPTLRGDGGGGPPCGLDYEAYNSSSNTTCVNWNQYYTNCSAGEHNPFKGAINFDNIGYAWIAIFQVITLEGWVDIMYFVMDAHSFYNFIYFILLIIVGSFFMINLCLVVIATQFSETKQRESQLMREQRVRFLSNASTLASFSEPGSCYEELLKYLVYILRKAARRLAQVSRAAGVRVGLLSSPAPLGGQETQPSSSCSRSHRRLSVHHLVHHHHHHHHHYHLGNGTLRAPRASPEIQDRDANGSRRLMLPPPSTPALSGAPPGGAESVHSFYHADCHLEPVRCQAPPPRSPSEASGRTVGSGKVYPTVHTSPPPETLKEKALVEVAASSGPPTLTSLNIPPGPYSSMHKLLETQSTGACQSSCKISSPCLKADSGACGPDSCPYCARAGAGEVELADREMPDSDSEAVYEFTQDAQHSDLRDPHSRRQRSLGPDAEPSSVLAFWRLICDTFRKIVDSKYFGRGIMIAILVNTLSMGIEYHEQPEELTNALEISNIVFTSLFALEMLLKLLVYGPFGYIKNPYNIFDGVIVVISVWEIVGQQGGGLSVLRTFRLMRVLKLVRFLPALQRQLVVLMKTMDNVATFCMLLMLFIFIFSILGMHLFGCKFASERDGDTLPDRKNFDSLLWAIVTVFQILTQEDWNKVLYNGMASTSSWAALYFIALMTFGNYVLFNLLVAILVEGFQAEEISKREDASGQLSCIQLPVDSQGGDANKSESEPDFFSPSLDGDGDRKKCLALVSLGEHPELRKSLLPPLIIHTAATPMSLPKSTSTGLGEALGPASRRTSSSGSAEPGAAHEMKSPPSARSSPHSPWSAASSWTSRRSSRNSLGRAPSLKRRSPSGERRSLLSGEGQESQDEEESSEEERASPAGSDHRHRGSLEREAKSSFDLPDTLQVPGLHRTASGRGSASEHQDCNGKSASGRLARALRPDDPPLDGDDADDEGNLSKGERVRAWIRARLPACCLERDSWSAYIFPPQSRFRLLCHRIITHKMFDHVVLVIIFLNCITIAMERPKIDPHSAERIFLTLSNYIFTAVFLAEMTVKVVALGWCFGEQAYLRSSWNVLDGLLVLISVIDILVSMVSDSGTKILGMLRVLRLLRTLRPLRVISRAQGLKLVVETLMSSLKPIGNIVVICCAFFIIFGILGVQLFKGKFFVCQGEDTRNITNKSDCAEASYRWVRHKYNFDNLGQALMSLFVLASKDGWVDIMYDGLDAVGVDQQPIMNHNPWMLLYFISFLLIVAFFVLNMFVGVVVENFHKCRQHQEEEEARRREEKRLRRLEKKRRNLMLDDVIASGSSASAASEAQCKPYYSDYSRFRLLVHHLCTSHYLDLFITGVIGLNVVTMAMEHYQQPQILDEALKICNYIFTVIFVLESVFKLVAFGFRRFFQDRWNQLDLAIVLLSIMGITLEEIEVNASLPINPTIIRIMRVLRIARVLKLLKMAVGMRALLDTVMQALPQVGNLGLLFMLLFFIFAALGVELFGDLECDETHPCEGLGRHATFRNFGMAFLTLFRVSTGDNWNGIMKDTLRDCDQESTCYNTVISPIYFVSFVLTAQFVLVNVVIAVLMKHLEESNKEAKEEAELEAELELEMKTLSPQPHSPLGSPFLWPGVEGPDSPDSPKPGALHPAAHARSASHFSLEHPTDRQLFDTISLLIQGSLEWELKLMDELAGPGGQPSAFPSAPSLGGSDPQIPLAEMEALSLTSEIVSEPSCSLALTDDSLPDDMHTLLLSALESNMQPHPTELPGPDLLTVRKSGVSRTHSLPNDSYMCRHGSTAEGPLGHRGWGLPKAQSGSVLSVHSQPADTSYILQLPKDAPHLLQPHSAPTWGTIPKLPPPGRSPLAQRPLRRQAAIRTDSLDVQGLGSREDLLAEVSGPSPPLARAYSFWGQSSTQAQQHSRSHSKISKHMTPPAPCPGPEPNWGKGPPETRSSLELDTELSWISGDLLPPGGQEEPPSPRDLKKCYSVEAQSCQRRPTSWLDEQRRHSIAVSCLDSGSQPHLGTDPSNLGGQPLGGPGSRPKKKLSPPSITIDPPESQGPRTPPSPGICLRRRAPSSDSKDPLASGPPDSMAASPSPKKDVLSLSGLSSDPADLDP

CCC1(C)CC(=O)NC1=O (centres unmarked) [ethosuximide]
anti-hyperalgesic activity in the spinal nerve ligation model [1]: anti-hyperalgesic activity

COCC(=O)O[C@]1(CCN(C)CCCc2nc3ccccc3[nH]2)CCc2cc(F)ccc2[C@@H]1C(C)C [Mibefradil]
anti-hyperalgesic activity in the spinal nerve ligation model [1]: anti-hyperalgesic activity | fold selective for T-type over L-type channels [2]: 10-30 fold

CC(C)(C)C(O)CN[C@H]1CC[C@@H](CC(=O)Nc2cc(C(F)(F)F)cc(C(F)(F)F)c2)CC1 (stereo partly drawn) [Compound 150, N-(3,5-bis(trifluoromethyl)phenyl)-2-(cis-4-(2-hydroxy-3,3-dimethylbutylamino)cyclohexyl)acetamide]
pIC50 [3]: 6.28 | pIC50 [4]: ≥ 6.52

CN(C(=O)CN[C@H]1CC[C@@H](CNC(=O)c2cc(F)cc(Cl)c2)CC1)C1(C)CCC1 [Compound 213, 3-chloro-5-fluoro-N-(((1s,4s)-4-(2-(methyl(1-methylcyclobutyl)amino)-2-oxoethylamino)cyclohexyl)methyl)benzamide]
pIC50 [3]: 6.48 | pIC50 [4]: 5.99

O=C(CNC[C@H]1CC[C@H](NC(=O)c2cc(C(F)(F)F)cc(C(F)(F)F)c2)CC1)Nc1ccccn1 [Compound 96, N-(trans-4-((2-oxo-2-(pyridin-2-ylamino)ethylamino)methyl)cyclohexyl)-3,5-bis(trifluoromethyl)benzamide]
pIC50 [3]: 5.98 | pIC50 [4]: 6.27

CC(C)(C)OC(=O)N[C@H]1CC[C@@H](CC(=O)Nc2cc(C(F)(F)F)cc(C(F)(F)F)c2)CC1 [Compound 105, tert-butyl cis-4-(2-(3,5-bis(trifluoromethyl)phenylamino)-2-oxoethyl)cyclohexylcarbamate]
pIC50 [3]: 5.22 | pIC50 [4]: 6.19

CC(C)(C)NC(=O)CN[C@H]1CC[C@@H](CNC(=O)c2cccc(Cl)c2)CC1 [Compound 179, N-(((1s,4s)-4-(2-(tert-butylamino)-2-oxoethylamino)cyclohexyl)methyl)-3-chlorobenzamide]
pIC50 [3]: 5.88 | pIC50 [4]: 5.53

CCC1CCCN1C(=O)CN[C@H]1CC[C@@H](CNC(=O)c2cc(C(F)(F)F)cc(C(F)(F)F)c2)CC1 (stereo partly drawn) [Compound 54, N-((cis-4-(2-(2-ethylpyrrolidin-1-yl)-2-oxoethylamino)cyclohexyl)methyl)-3,5-bis(trifluoromethyl)benzamide]
pIC50 [3]: 6.68 | pIC50 [4]: ≥ 6.52

COc1cc(F)cc(C(=O)NC[C@H]2CC[C@@H](NCC(=O)N3CCOCC3(C)C)CC2)c1 [Compound 198, N-(((1s,4s)-4-(2-(3,3-dimethylmorpholino)-2-oxoethylamino)cyclohexyl)methyl)-3-fluoro-5-methoxybenzamide]
pIC50 [3]: 6.20 | pIC50 [4]: 5.00

O=C(C[C@H]1CC[C@@H](NC(=O)[C@H]2CCCN2)CC1)Nc1cc(C(F)(F)F)cc(C(F)(F)F)c1 [Compound 146, (R)-N-(cis-4-(2-(3,5-bis(trifluoromethyl)phenylamino)-2-oxoethyl)cyclohexyl)pyrrolidine-2-carboxamide]
pIC50 [3]: 5.10 | pIC50 [4]: 5.55

O=C(CN[C@H]1CC[C@@H](CNC(=O)c2cc(C(F)(F)F)cc(C(F)(F)F)c2)CC1)NCC1CCCCC1 [Compound 48, N-((cis-4-(2-(cyclohexylmethylamino)-2-oxoethylamine)cyclohexyl)methyl)-3,5-bis(trifluoromethyl)benzamide]
pIC50 [3]: 6.60 | pIC50 [4]: 6.46

CC(C)(C)C(O)CN[C@H]1CC[C@@H](CNC(=O)c2cc(C(F)(F)F)cc(C(F)(F)F)c2)CC1 (some centres unmarked) [Compound 1]
pIC50 [3]: 6.24 | pIC50 [4]: 6.41

COc1cc(F)cc(C(=O)NC[C@H]2CC[C@@H](NCC(=O)NC3(C)CCC3)CC2)c1 [Compound 197, 3-fluoro-5-methoxy-N-(((1s,4s)-4-(2-(1-methylcyclobutylamino)-2-oxoethylamino)cyclohexyl)methyl)benzamide]
pIC50 [3]: 6.59 | pIC50 [4]: 5.71

O=C(C[C@H]1CC[C@@H](NC(=O)[C@@H]2C[C@@H](c3ccccc3)CN2)CC1)NCc1cccc(OC(F)(F)F)c1 [Compound 116, (2S,4S)-N-(cis-4-(2-oxo-2-(3-(trifluoromethoxy)benzylamino)ethyl)cyclohexyl)-4-phenylpyrrolidine-2-carboxamide]
pIC50 [3]: ≤ 5.00 | pIC50 [4]: 5.54

Cc1ccc(NC(=O)CN[C@H]2CC[C@H](CNC(=O)c3cc(C(F)(F)F)cc(C(F)(F)F)c3)CC2)nc1 [Compound 77, N-((trans-4-(2-(5-methylpyridin-2-ylamino)-2-oxoethylamino)cyclohexyl)methyl)-3,5-bis(trifluoromethyl)benzamide]
pIC50 [3]: 5.94 | pIC50 [4]: 6.14

CC(C)(C)c1nc(CN[C@H]2CC[C@H](CNC(=O)c3cc(C(F)(F)F)cc(C(F)(F)F)c3)CC2)no1 [Compound 66, N-((trans-4-((5-tert-butyl-1,2,4-oxadiazol-3-yl)methylamino)cyclohexyl)methyl)-3,5-bis(trifluoromethyl)benzamide]
pIC50 [3]: 5.52 | pIC50 [4]: 5.87

CC(C)(C)NC(=O)CN[C@H]1CC[C@@H](CNC(=O)c2cc(F)cc(Cl)c2)CC1 [Compound 186, N-(((1s,4s)-4-(2-(tert-butylamino)-2-oxoethylamino)cyclohexyl)methyl)-3-chloro-5-fluorobenzamide]
pIC50 [3]: 6.59 | pIC50 [4]: 5.93

COc1cc(C(=O)NC[C@H]2CC[C@@H](NCCNC(=O)OC(C)(C)C)CC2)cc(C(F)(F)F)c1 [Compound 100, tert-butyl 2-(cis-4-((3-methoxy-5-(trifluoromethyl)benzamido)methyl)cyclohexylamino)ethylcarbamate]
pIC50 [3]: 6.07 | pIC50 [4]: 5.99
